Source: patent publication US20240365781A1, “SYNERGISTICALLY EFFECTIVE HERBICIDE COMPOSITION COMPRISING PELARGONIC ACID AND FLAZASULFURON” (Belchim Crop Protection NV, priority 2017, published 2024)

Experiments:
Format in all cases: in vivo
Matricaria chamomilla = test: post-emergence test, pot trial (Examples 1-5); conditions: bigger plants, 28 d, PT, pelargonic acid 10880 g/ha, 16 L/ha
Text: (§1) The expected activity of a given combination of two or three herbicides can be calculated as follows according to a calculation method by Colby (cf. COLBY, S. R.: “Calculating synergistic and antagonistic responses of herbicide combinations”, • Weeds 15, pages 20-22, 1967): • If X=% damage by herbicide (A) at an application rate of m g/ha, • Y=% damage by herbicide (B) at an application rate of n g/ha, • E=the expected damage by herbicides (A) and (B) at application rates of m and n […] and, • then for a combination:
(§2) Individual compositions comprising pelargonic acid or flazasulfuron are compared with a herbicide composition according to the invention comprising pelargonic acid and flazasulfuron.
(§3) Herbicidal activity was determined by performing a post-emergence test. […] The corresponding mixture was in the form of a spray liquor. Besides, spray liquors of individual compositions comprising pelargonic acid or flazasulfuron were used.
(§4) Tests were performed on test fields (field trials) or in pots (pot trials).

Poa annua = test: post-emergence test, pot trial (Examples 1-5); conditions: 28 d, PT; pelargonic acid 10880 g/ha, flazasulfuron 50 g/ha; 16 L/ha
Text: as §1, §2, §3, §4

Trifolium repens = test: post-emergence test, pot trial (Examples 1-5); conditions: 28 d, PT; pelargonic acid 10880 g/ha, flazasulfuron 50 g/ha; 16 L/ha
Text: as §1, §2, §3, §4

Amaranthus retroflexus = test: post-emergence field trial under rows of vines, 150-200 L water/ha (Examples 6-9); conditions: flazasulfuron 40 g/ha
Text: as §1, §2
(§5) Herbicidal activity was determined by performing a post-emergence test. […] The corresponding mixture was in the form of a spray solution. Besides, spray solutions of individual compositions comprising pelargonic acid or flazasulfuron were used.
(§6) The spray solution was applied on plants of unwanted vegetation present on fields where perennial crops were grown.
(§7) After 5 to 88 days after application of the spray solution, the degree of damage to the unwanted vegetation is rated in % of plants of unwanted vegetation that were killed. Tests were performed on test fields (field trials).

Bromus oxyodon = test: as above; conditions: flazasulfuron 40 g/ha
Text: as §1, §2, §5, §6, §7

Chenopodium album = test: as above; conditions: flazasulfuron 40 g/ha
Text: as §1, §2, §5, §6, §7

Digitaria sanguinalis = test: as above; conditions: flazasulfuron 40 g/ha
Text: as §1, §2, §5, §6, §7

Erigeron sumatrensis = test: as above; conditions: flazasulfuron 40 g/ha
Text: as §1, §2, §5, §6, §7

Geranium molle = test: as above; conditions: 15 d, flazasulfuron 40 g/ha
Text: as §1, §2, §5, §6, §7

Oxalis latifolia = test: as above; conditions: flazasulfuron 40 g/ha
Text: as §1, §2, §5, §6, §7

Sonchus oleracea = test: as above; conditions: flazasulfuron 40 g/ha
Text: as §1, §2, §5, §6, §7

Veronica persicae = test: as above; conditions: flazasulfuron 40 g/ha
Text: as §1, §2, §5, §6, §7

[1] = 7 d, pelargonic acid 10880 g/ha
[2] = 14 d, pelargonic acid 5440 g/ha
[3] = 14 d, pelargonic acid 10880 g/ha
[4] = 31 d, pelargonic acid 5440 g/ha
[5] = 31 d, pelargonic acid 8160 g/ha
[6] = 31 d, pelargonic acid 10880 g/ha
[7] = 58 d, pelargonic acid 5440 g/ha
[8] = 58 d, pelargonic acid 6800 g/ha
[9] = 58 d, pelargonic acid 8160 g/ha
[10] = 58 d, pelargonic acid 10880 g/ha
[11] = 14 d, pelargonic acid 6800 g/ha
[12] = 14 d, pelargonic acid 8160 g/ha
[13] = 28 d, pelargonic acid 6800 g/ha
[14] = 27 d, pelargonic acid 5440 g/ha
[15] = 27 d, pelargonic acid 6800 g/ha
[16] = 27 d, pelargonic acid 8160 g/ha
[17] = 27 d, pelargonic acid 10880 g/ha
[18] = 56 d, pelargonic acid 5440 g/ha
[19] = 56 d, pelargonic acid 6800 g/ha
[20] = 56 d, pelargonic acid 8160 g/ha
[21] = 56 d, pelargonic acid 10880 g/ha

CCCCCCCCC(=O)O [Pelargonic acid, nonanoic acid]
herbicidal effect (Matricaria chamomilla; flazasulfuron 25 g/ha): 0% | herbicidal effect (Matricaria chamomilla; flazasulfuron 50 g/ha): 0% | herbicidal effect (Poa annua): 0% | herbicidal effect (Trifolium repens): 0% | herbicidal effect (Amaranthus retroflexus; 7 d, pelargonic acid 5440 g/ha): 53% | herbicidal effect (Amaranthus retroflexus; [1]): 86% | herbicidal effect (Amaranthus retroflexus; [2]): 53% | herbicidal effect (Amaranthus retroflexus; [3]): 86% | herbicidal effect (Amaranthus retroflexus; [4]): 48% | herbicidal effect (Amaranthus retroflexus; 31 d, pelargonic acid 6800 g/ha): 50% | herbicidal effect (Amaranthus retroflexus; [5]): 70% | herbicidal effect (Amaranthus retroflexus; [6]): 75% | herbicidal effect (Amaranthus retroflexus; [7]): 18% | herbicidal effect (Amaranthus retroflexus; [8]): 30% | herbicidal effect (Amaranthus retroflexus; [9]): 48% | herbicidal effect (Amaranthus retroflexus; [10]): 63% | herbicidal effect (Bromus oxyodon; 7 d, pelargonic acid 5440 g/ha): 10% | herbicidal effect (Bromus oxyodon; 7 d, pelargonic acid 6800 g/ha): 11% | herbicidal effect (Bromus oxyodon; 7 d, pelargonic acid 8160 g/ha): 15% | herbicidal effect (Bromus oxyodon; [1]): 18% | herbicidal effect (Bromus oxyodon; [2]): 11% | herbicidal effect (Bromus oxyodon; [11]): 16% | herbicidal effect (Bromus oxyodon; [12]): 20% | herbicidal effect (Bromus oxyodon; [3]): 23% | herbicidal effect (Bromus oxyodon; 28 d, pelargonic acid 5440 g/ha): 8% | herbicidal effect (Bromus oxyodon; [13]): 11% | herbicidal effect (Bromus oxyodon; 28 d, pelargonic acid 8160 g/ha): 16% | herbicidal effect (Bromus oxyodon; 28 d, pelargonic acid 10880 g/ha): 18% | herbicidal effect (Chenopodium album; 7 d, pelargonic acid 5440 g/ha): 60% | herbicidal effect (Chenopodium album; [1]): 91% | herbicidal effect (Chenopodium album; [2]): 60% | herbicidal effect (Chenopodium album; [3]): 91% | herbicidal effect (Chenopodium album; [4]): 45% | herbicidal effect (Chenopodium album; [5]): 74% | herbicidal effect (Chenopodium album; [6]): 78% | herbicidal effect (Chenopodium album; [7]): 23% | herbicidal effect (Chenopodium album; [8]): 35% | herbicidal effect (Chenopodium album; [9]): 65% | herbicidal effect (Chenopodium album; [10]): 65% | herbicidal effect (Digitaria sanguinalis; 7 d, pelargonic acid 5440 g/ha): 35% | herbicidal effect (Digitaria sanguinalis; 7 d, pelargonic acid 6800 g/ha): 63% | herbicidal effect (Digitaria sanguinalis; 7 d, pelargonic acid 8160 g/ha): 48% | herbicidal effect (Digitaria sanguinalis; [1]): 54% | herbicidal effect (Digitaria sanguinalis; [2]): 10% | herbicidal effect (Digitaria sanguinalis; [11]): 58% | herbicidal effect (Digitaria sanguinalis; [12]): 43% | herbicidal effect (Digitaria sanguinalis; [3]): 49% | herbicidal effect (Digitaria sanguinalis; [14]): 10% | herbicidal effect (Digitaria sanguinalis; [15]): 20% | herbicidal effect (Digitaria sanguinalis; [16]): 26% | herbicidal effect (Digitaria sanguinalis; [17]): 5% | herbicidal effect (Digitaria sanguinalis; [18]): 0% | herbicidal effect (Digitaria sanguinalis; [19]): 8% | herbicidal effect (Digitaria sanguinalis; [20]): 0% | herbicidal effect (Digitaria sanguinalis; [21]): 0% | herbicidal effect (Erigeron sumatrensis; 5 d, pelargonic acid 5440 g/ha): 55% | herbicidal effect (Erigeron sumatrensis; 5 d, pelargonic acid 8160 g/ha): 83% | herbicidal effect (Erigeron sumatrensis; 15 d, pelargonic acid 5440 g/ha): 35% | herbicidal effect (Erigeron sumatrensis; 15 d, pelargonic acid 6800 g/ha): 50% | herbicidal effect (Erigeron sumatrensis; 15 d, pelargonic acid 8160 g/ha): 61% | herbicidal effect (Geranium molle; pelargonic acid 5440 g/ha): 0% | herbicidal effect (Geranium molle; pelargonic acid 6800 g/ha): 3% | herbicidal effect (Geranium molle; pelargonic acid 8160 g/ha): 0% | herbicidal effect (Geranium molle; pelargonic acid 10880 g/ha): 0% | herbicidal effect (Oxalis latifolia; 7 d, pelargonic acid 6800 g/ha): 54% | herbicidal effect (Oxalis latifolia; 7 d, pelargonic acid 8160 g/ha): 58% | herbicidal effect (Oxalis latifolia; [1]): 73% | herbicidal effect (Oxalis latifolia; [2]): 76% | herbicidal effect (Oxalis latifolia; [11]): 85% | herbicidal effect (Oxalis latifolia; [12]): 89% | herbicidal effect (Oxalis latifolia; [3]): 96% | herbicidal effect (Oxalis latifolia; [13]): 68% | herbicidal effect (Sonchus oleracea; [2]): 25% | herbicidal effect (Sonchus oleracea; [11]): 45% | herbicidal effect (Sonchus oleracea; [12]): 25% | herbicidal effect (Sonchus oleracea; [3]): 28% | herbicidal effect (Sonchus oleracea; [14]): 0% | herbicidal effect (Sonchus oleracea; [15]): 13% | herbicidal effect (Sonchus oleracea; [16]): 0% | herbicidal effect (Sonchus oleracea; [17]): 0% | herbicidal effect (Sonchus oleracea; [18]): 0% | herbicidal effect (Sonchus oleracea; [19]): 0% | herbicidal effect (Sonchus oleracea; [20]): 0% | herbicidal effect (Sonchus oleracea; [21]): 0% | herbicidal effect (Veronica persicae; 7 d, pelargonic acid 5440 g/ha): 43% | herbicidal effect (Veronica persicae; 7 d, pelargonic acid 6800 g/ha): 55% | herbicidal effect (Veronica persicae; 7 d, pelargonic acid 8160 g/ha): 50% | herbicidal effect (Veronica persicae; [1]): 45% | herbicidal effect (Veronica persicae; [2]): 10% | herbicidal effect (Veronica persicae; [11]): 45% | herbicidal effect (Veronica persicae; [12]): 30% | herbicidal effect (Veronica persicae; [3]): 30% | herbicidal effect (Veronica persicae; [14]): 0% | herbicidal effect (Veronica persicae; [15]): 20% | herbicidal effect (Veronica persicae; [16]): 0% | herbicidal effect (Veronica persicae; [17]): 0% | herbicidal effect (Veronica persicae; [18]): 0% | herbicidal effect (Veronica persicae; [21]): 0%
